Assay results published in patent US10543183B2, “Treatment and diagnosis of melanoma” (The Rockefeller University, priority 2012, dated 2020).
Counter-ions that a name gives are not always drawn.

Key:
[1] = tested on: endothelial cells (HUVEC) recruited by human melanoma cells; experiment: trans-well endothelial recruitment assay; format: cell-based; details: for ability of melanoma cells to recruit endothelial cells: MeWo, HT-144, SK-Mel-2, SK-Mel-334.2, 1 μM for 72 hours
Protocol: 5×10^4 cancer cells were seeded into 24-well plates approximately 24 hours prior to the start of the assay. HUVEC's were grown to 80% confluency and serum starved in EGM-2 media supplemented with 0.2% FBS for 16 hours. HUVEC's were then pulsed with Cell Tracker Red CMTPX dye (C34552, Invitrogen) for 45 minutes. Meanwhile, cancer cells were washed with PBS, 0.5 mL of 0.2% FBS EGM-2 media was added to each well, and a 3.0 μm HTS Fluoroblock insert (351151, BD Falcon, San Jose, Calif.) was placed into each well. 1×10^5 HUVEC's, resuspended in 0.5 mL of starvation media, were seeded into each trans-well insert, and the recruitment assay was allowed to proceed for 16-18 hours at 37° C. For neutralization antibody and/or recombinant protein experiments, antibody/protein was then added to each well at the appropriate concentration as indicated in the figures: 40 μg/mL anti-ApoE 1D7, 40 μg/mL anti-IgG, 100 μM rhApoE3, and 100 μM BSA. Upon completion of the assay, the inserts were processed and analyzed as described for the matrigel invasion assay above (See Matrigel Invasion Assay).
The endothelial recruitment assay was carried out as previously described (Pencheva et al., 2012; Png et al., 2012). Melanoma cells were treated with DMSO, GW3965, T0901317, or Bexarotene at 1 μM for 56 hours, after which 5×10^4 cells were seeded in a 24-well plate in the presence of each drug and allowed to attach for 16 hours prior to starting the assay. HUVEC cells were serum-starved overnight in EGM-2 media containing 0.2% FBS. The following day, 1×10^5 HUVEC cells were seeded into a 3.0 μm HTS Fluoroblock trans-well migration insert (351151, BD Falcon, San Jose, Calif.) fitted into each well containing cancer cells at the bottom. The HUVEC cells were allowed to migrate towards the cancer cells for 20 hours at 37° C., after which the inserts were processed as previously described (Pencheva et al., 2012). For ApoE antibody neutralization experiments, 40 μg/mL 1D7 anti-ApoE blocking antibody (Heart Institute, University of Ottawa, Ottawa, Canada) or 40 μg/mL anti-IgG control antibody (AB-108-C, R&D Systems, Minneapolis, Minn.) was added to each trans-well insert at the start of the assay.
Subsequently, 5×10^4 cancer cells were seeded into 24-well plates in the presence of each drug or DMSO and allowed to attach for 16 hours prior to starting the assay. Human umbilical vein endothelial cells (HUVEC cells) were serum-starved in 0.2% FBS-containing media overnight. The following day, 1×10^5 HUVEC cells were seeded into a 3.0 μm HTS Fluoroblock insert (351151, BD Falcon) fitted into each well containing the cancer cells at the bottom. The HUVEC cells were allowed to migrate towards the cancer cells for 20 hours, after which the inserts were washed in PBS, fixed in 4% PFA, labeled with DAPI, and mounted on slides. The basal side of each insert was imaged using an inverted fluorescence microscope (Zeiss Axiovert 40 CFL) at 5× magnification, and the number of DAPI-positive cells was quantified using ImageJ.

melanoma cells = experiment: cell proliferation and viability assay; format: cell-based, human; details: for cell proliferation or cell viability rates: MeWo, HT-144, SK-Mel-334.2, 1 μM, 5 days
Protocol: To determine the effects of miR-199a or miR-1908 over-expression and combinatorial LNA-induced miRNA inhibition on cell proliferation, 2.5×10^4 cells were seeded in triplicate in 6-well plates, and viable cells were counted after 5 days. […] Viable cells were counted after 8, 24, 48, 72, and 120 hours.
After 5 days, the number of viable and dead cells was counted using the trypan blue dye (72-57-1, Sigma-Aldrich), which selectively labels dead cells.

[2] = tested on: human melanoma cells (MeWo, MeWo-LM2, A375-LM3, HT-144, SK-Mel-334.2); experiment: tail-vein lung metastatic colonization assay; format: in vivo, mouse; details: for reduction in lung metastatic colonization by MeWo cells: orally administered, immunocompromised mice
Protocol: After 8 hours, the transfection media was replaced with fresh media. After 48 hours, 1×10^5 cells were injected intravenously into NOD-SCID mice to assess lung metastatic colonization or through intracardiac injection into athymic nude mice to assess systemic metastasis. For cell invasion and endothelial recruitment in vitro assays, the cells were used 96 hours post-transfection.
Melanoma cells used for in vivo metastasis assays were transduced with a stably expressed retroviral construct encoding a luciferase reporter gene (Ponomarev et al., 2004), allowing us to monitor the in vivo progression of melanoma cells by bioluminescence imaging. The following numbers of melanoma cells, resuspended in 100 μL of PBS, were injected intravenously via the tail-vein: 4×10^4 MeWo cells, 2.5×10^5 HT-144 cells, 2×10^5 SK-Mel-334.2 cells, 5×10^4B 16F10 cells, and 1×10^5YUMM cells. The MeWo, HT-144, and SK-Mel-334.2 cells were injected into 6-8 week-old sex-matched NOD scid mice, while the B16F10 and YUMM cells were injected into 6-8 week-old sex-matched C57BL/6 mice. In all experiments assessing at the effects of GW3965 on metastasis formation, mice were pre-treated on a control diet or a GW3965-supplemented diet (20 mg/kg) for 10 days. To assess the effect of GW3965 treatment on brain metastasis, 1×10^5 MeWo brain-metastatic derivatives were injected intracardially into athymic nude mice. Immediately following injection, mice were randomly assigned to a control diet or GW3965-supplemented diet (100 mg/kg). To determine whether oral delivery of GW3965 can inhibit the progression of incipient metastasis, NOD Scid mice were intravenously injected with 4×10^4MeWo cells and the cells were allowed to colonize the lungs for 42 days, after which mice were blindedly assigned to a control diet or a GW3965-supplemented diet (100 mg/kg) treatment.

Compound | endothelial recruitment by metastatic LM2 cells ([1]; 100 μM added to cell media) | ability of pre-treated endothelial cells to migrate towards highly metastatic cancer cells ([1]; endothelial cells pre-incubated 100 μM, 24 hours, LM2 cells) | melanoma cell or endothelial cell in vitro proliferation (melanoma cells; 100 μM) | suppression of metastatic colonization ([2]; MeWo-LM2 cells pre-incubated for 24 hours at 100 μg/mL before injection) | ability of melanoma cells to recruit endothelial cells [1] | cell proliferation or cell viability rates (melanoma cells) | reduction in lung metastatic colonization by MeWo cells ([2]; chow 20 mg/kg) [fold] | endothelial recruitment ([1]; parental MeWo cells pre-treated for 48 hours) | reduction in metastatic colonization capacity of pre-treated cells ([2]; MeWo cells pre-treated 1 μM for 48 hours) | survival times following metastatic colonization ([2]; chow 20 mg/kg) | in vivo melanoma metastasis (lung, bioluminescence) ([2]; chow diet 20 mg/kg, tail-vein injection of parental MeWo cells) | metastatic colonization by HT-144 and SK-Mel-334.2 lines ([2]; diet 20 mg/kg) | suppression of colonization by incipient lung metastases ([2]; diet 100 mg/kg from d42) [fold] | number of macroscopic metastatic nodules formed ([2]; diet 100 mg/kg, d77)
recombinant ApoE3: recombinant human ApoE3 (4696, BioVision) | significantly suppressed | significantly reduced | did not affect | over 300 fold | – | – | – | – | – | – | – | – | – | –
O=S(=O)(c1ccccc1)N(CC(F)(F)F)c1ccc(C(O)(C(F)(F)F)C(F)(F)F)cc1 [T0901317 1] | – | – | – | – | consistently suppressed | did not affect | 23 | – | – | – | – | – | – | –
O=C(O)Cc1cccc(OCCCN(Cc2cccc(C(F)(F)F)c2Cl)CC(c2ccccc2)c2ccccc2)c1 [GW3965 2, 3-[3-[N-(2-Chloro-3-trifluoromethylbenzyl)-(2,2-diphenylethyl)amino]propyloxy] phenylacetic acid hydrochloride] | – | – | – | – | consistently suppressed | did not affect | 31 | decreased | more than 50 fold | significantly prolonged | significant reduction | suppressed | 28 | decreased
